Series [1] has as its system Q7 cells (ST HDH Q7/7; immortalized mouse striatal cells). Description: Q7 Cystine Deprivation cell survival (rescue) assay. The class given is cell-based. The settings on record: Q7 cells, cystine-free medium, 18 h, Cell Titer Glo, 50% relative viability vs Vitamin K2 (1 micromolar), read-out: Q7 Cystine Deprivation Survival EC50. The procedure, abridged:
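Cells were seeded at 3,000/well and allowed to attach for 5 h at 33 °C. Wells were then washed twice with PBS and switched to cystine-free DMEM containing FBS, 4 mM L-glutamine, 1 mM pyruvate and 30 mg/L methionine to induce ferroptotic death. Compounds were scored for survival rescue.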

The target of another series is T1, CYP3A4 (Homo sapiens, UniProt P08684).
T1 construct: from tissue; host or cells: pooled human liver microsomes
T1 sequence (P08684 whole entry): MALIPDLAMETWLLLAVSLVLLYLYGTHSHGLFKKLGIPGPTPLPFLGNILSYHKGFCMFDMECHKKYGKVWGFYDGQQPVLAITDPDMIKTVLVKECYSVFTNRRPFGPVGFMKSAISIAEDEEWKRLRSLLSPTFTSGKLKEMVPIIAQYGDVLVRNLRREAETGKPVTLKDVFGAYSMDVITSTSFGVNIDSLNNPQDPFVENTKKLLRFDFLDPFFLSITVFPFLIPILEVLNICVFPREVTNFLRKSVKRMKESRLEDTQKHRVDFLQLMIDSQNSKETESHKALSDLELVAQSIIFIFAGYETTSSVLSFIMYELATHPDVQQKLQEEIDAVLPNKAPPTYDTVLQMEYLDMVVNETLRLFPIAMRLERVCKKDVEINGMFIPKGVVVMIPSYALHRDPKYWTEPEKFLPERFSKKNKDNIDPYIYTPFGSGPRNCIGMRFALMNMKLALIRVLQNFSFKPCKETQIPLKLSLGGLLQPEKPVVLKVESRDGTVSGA
The experiment in a line: CYP450 Inhibition Assay 2 (pooled human liver microsomes, 5 concentrations). The class given is in vitro ADME. The settings on record: Table 3, HLM 0.05 mg protein/mL, 10 min reaction; for IC50 at 10 min: human, pooled human liver microsomes. Here is the method: In an alternative experimental design, test compounds were evaluated at 5 concentrations in a 96 well assay plate. Initial combination with pooled human liver microsomes (0.05 mg protein/mL) was followed by a 5 minute incubation. […] The assay plate was incubated for an additional 30 minutes before the reaction was initiated with the addition of NADPH. After 10 minutes of reaction time, the reaction was quenched and samples were analyzed in a similar manner as described above.
For orientation: Liver microsomes are a subcellular fraction often used to study metabolism.

In series [2] the test system is Q7 cells (ST HDH Q7/7; immortalized mouse striatal cells). The experiment in a line: Q7 RSL3 challenge cell survival (rescue) assay. To be noted: Q7 cells, RSL3 2 micromolar, 18 h, Cell Titer Glo, read-out: Q7 RSL3 Survival EC50. It is filed as cell-based. The source says: In neuronal cells excess extracellular glutamate inhibits the cystine/glutamate antiporter leading to intracellular cysteine depletion, GSH depletion, reactive oxygen species (ROS) production and cell death, a phenomenon termed oxidative glutamate toxicity, oxytosis, or ferroptosis. […] Q7 cells (ST HDH Q7/7; immortalized mouse striatal cells) challenged with cystine-free media or the selective, irreversible GPX4 inhibitor, methyl (1S,3R)-2-(2-chloroacetyl)-1-(4-(methoxycarbonyl)phenyl)-2,3,4,9-tetrahydro-1H-pyrido[3,4-b]indole-3-carboxylate (hereafter referred to as RSL3), recapitulate this phenotype, as do normal human fibroblasts (NHF) challenged with RSL3. An initial screen was performed to identify compounds effective in rescuing Q7 and/or NHF cells from death resulting from cystine deprivation or RSL3 challenge. This method is further described in Yonezawa et al., J. Neurochem 67, 566-573 (1996), Li et al., J Neurosci., 23, 5816-5826 (2003), Yang and Stockwell, Chem Biol., 15: 234-45 (2008), and Yang et al., Cell 156, 317-331 (2014). See also Hinman A, Holst C R, Latham J C, et al. Vitamin E hydroquinone is an endogenous regulator of ferroptosis via redox control of 15-lipoxygenase. PLoS One. 2018; 13(8):e0201369. Published 2018 Aug. 15. doi:10.1371/journal.pone.0201369; and Kahn-Kirby A H, Amagata A, Maeder C I, et al. Targeting ferroptosis: A novel therapeutic strategy for the treatment of mitochondrial disease-related epilepsy. PLoS One. 2019; 14(3):e0214250. Published 2019 Mar. 28. doi:10.1371/journal.pone.0214250.
DMEM (Catalog no. 11995-040), DMEM without Cystine (Catalog no. 21013-024), DMEM without Glucose (Catalog A1443001), PBS (Phosphate buffered saline), Penicillin-streptomycin mix, L-Glutamine, Glucose, Phenol Red, and Pyruvate were purchased from ThermoFisher Scientific (Gibco). Fetal Bovine Serum was obtained from Mediatech, Inc., or Sigma Aldrich. Mouse striatum derived ST HDH Q7/7 (Q7) and normal human skin fibroblast (NHF, product number GM21811) cells were obtained from the Coriell Institute. Methionine and Vitamin K2 were purchased from Sigma Aldrich. RSL3 was synthesized as previously described (see e.g. US Patent Publication US2010/0081654). Cell Titer Glo 2.0 was purchased from Promega. Q7 cell culture medium (Q7 growth medium) was made by combining 50 mL Fetal Bovine Serum, 100 U/mL penicillin, and 100 microgram/mL streptomycin; DMEM was added to make the volume up to 500 mL. Assay medium for the Cystine Deprivation assay was prepared by combining 50 mL Fetal Bovine Serum, 100 U/mL penicillin, 100 microgram/mL streptomycin, 4 mM L-Glutamine, 1 mM Pyruvate and 30 mg/L Methionine; DMEM without Cystine was added to make the volume up to 500 mL. NHF cell culture medium (NHF growth medium) was made by combining 50 mL Fetal Bovine Serum, 100 U/mL penicillin, 100 microgram/mL streptomycin, 2.8 mL 20% Glucose solution (final concentration 6 mM), L-glutamine (final concentration 2 mM), phenol red (final concentration 15 mg/L); DMEM without Glucose was added to make the volume up to 500 mL. Assay medium for the RSL3 challenge assay was identical to Growth medium. While not in use during the course of the experiments, these solutions were stored at 4° C. The cells were grown in 150-cm^2 tissue culture-treated flasks. Every third or fourth day, the cells were sub-cultured by trypsinization and re-seeded at a cell density of 600,000 (Q7) or 300,000 (NHF) cells per flask.
Q7 or NHF cells were cultured routinely as described herein. For 384-well cell survival assays, cells were seeded in clear bottom, black wall 384-well tissue culture-treated polystyrene plates by re-suspending a cell suspension at a density of 50,000 cells/mL in growth medium, then dispensing 60 microliters of cell suspension per well using either an electronic multichannel pipette or a Multidrop™ Combi Reagent Dispenser (ThermoFisher Scientific), corresponding to 3,000 cells/well. […]
Background: In ATP-based viability assays light output follows the ATP content of the culture.

The subject of series [3] is normal human fibroblasts (NHF, GM21811). Description: NHF GM21811 RSL3 challenge cell survival (rescue) assay. The class given is cell-based. To be noted: Fibroblast, NHF cells, RSL3 2 micromolar, 48 h, Cell Titer Glo, read-out: NHF GM21811 RSL3 Survival EC50. The gist of the method: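 Q7 (33° C.) or NHF (37° C.) cells, 3,000/well, attached 5 h, then test compounds at varying final concentrations followed within 15 min by RSL3 (2 micromolar final); 0.3% DMSO. Assay medium identical to growth medium.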

pEC50: −log10 of the molar value. Where only a bound is given, the exact number is not on record here.

In patent US20230002324A1, “NAPHTHOQUINONE DERIVATIVES FOR TREATMENT OF OXIDATIVE STRESS DISORDERS” (PTC THERAPEUTICS, INC., priority 2019, published 2023) one finds EC50 and IC50 data, which are given here for 20 compounds.

In general, pEC50 refers to −log10 of the EC50, conventionally taken in molar units. One may read the IC50 as the concentration that inhibits the measured activity by half. `CC1=C(Cc2cc(C(F)(F)F)ccn2)C(=O)c2ccccc2C1=O` [Example 9, 2-methyl-3-((4-(trifluoromethyl)pyridin-2-yl)methyl)naphthalene-1,4-dione]: the pEC50 in series [1] was more than 7.30. The half-inhibitory concentration (IC50) at CYP3A4 is 37.2 µM.
Take `CC1=C(C(C)c2ccccn2)C(=O)c2ccccc2C1=O` (stereo not drawn) [Example 24, 2-methyl-3-(1-(pyridin-2-yl)ethyl)naphthalene-1,4-dione]: the pEC50 in series [1] was more than 7.30. The IC50 on CYP3A4 came to 20.1 µM.
Take `O=C1C(Cc2ccc(C(F)(F)F)cn2)=C(C2CC2)C(=O)c2ccccc21` [Example 27, 2-cyclopropyl-3-((5-(trifluoromethyl)pyridin-2-yl)methyl)naphthalene-1,4-dione]: the pEC50 in series [1] was more than 7.30. For the same compound, the IC50 at CYP3A4 was found to be 11.9 µM.
In the case of `CC(C)(C)CC1=C(Cc2ccc(C(F)(F)F)cn2)C(=O)c2ccccc2C1=O` [Example 28, 2-neopentyl-3-((5-(trifluoromethyl)pyridin-2-yl)methyl)naphthalene-1,4-dione], the pEC50 in series [1] was 6.60 to 7.30. At CYP3A4, the IC50 at 10 min was not below 50 µM.
`CC(C)CC1=C(Cc2ccc(C(F)(F)F)cn2)C(=O)c2ccccc2C1=O` [Example 29, 2-isobutyl-3-((5-(trifluoromethyl)pyridin-2-yl)methyl)naphthalene-1,4-dione]: the pEC50 in series [1] is more than 7.30. On CYP3A4, the IC50 was determined as 21.4 µM.
As for `CC1(C2=C(Cc3ccc(C(F)(F)F)cn3)C(=O)c3ccccc3C2=O)CC1` [Example 31, 2-(1-methylcyclopropyl)-3-((5-(trifluoromethyl)pyridin-2-yl)methyl)naphthalene-1,4-dione], in series [1], the pEC50 was more than 7.30. In addition, the IC50 on CYP3A4 worked out at 17.4 µM.
Turning to `CC1(CCC2=C(Cc3ccc(C(F)(F)F)cn3)C(=O)c3ccccc3C2=O)COC1` [Example 32, 2-(2-(3-methyloxetan-3-yl)ethyl)-3-((5-(trifluoromethyl)pyridin-2-yl)methyl)naphthalene-1,4-dione], the values for the negative-log EC50 (pEC50) in series [1], in series [2] and in series [3] were more than 7.30, more than 7.30 and 6.60 to 7.30, respectively.
As for `O=C1C(CCC2COC2)=C(Cc2ccc(C(F)(F)F)cn2)C(=O)c2ccccc21` [Example 33, 2-(2-(oxetan-3-yl)ethyl)-3-((5-(trifluoromethyl)pyridin-2-yl)methyl)naphthalene-1,4-dione], the values for the negative-log EC50 (pEC50) in series [1], in series [2] and in series [3] were more than 7.30, more than 7.30 and 6.60 to 7.30, respectively.
As for `O=C1C(Cc2ccc(F)cn2)=C(C2CC2)C(=O)c2ccccc21` [Example 35, 2-cyclopropyl-3-((5-fluoropyridin-2-yl)methyl)naphthalene-1,4-dione], the pEC50 in series [1], in series [2] and in series [3] was more than 7.30 throughout.
In the case of `CC1=C(Cc2ncccc2C(F)(F)F)C(=O)c2ccccc2C1=O` [Example 39, 2-methyl-3-((3-(trifluoromethyl)pyridin-2-yl)methyl)naphthalene-1,4-dione], the negative logarithm of the EC50 (pEC50) in series [1] was more than 7.30. For the same compound, the IC50 at 10 min at CYP3A4 is not below 50 µM.
Take `CC1=C(Cc2ccc(F)cn2)C(=O)c2ccc(F)cc2C1=O` [Example 48, 6-fluoro-2-((5-fluoropyridin-2-yl)methyl)-3-methylnaphthalene-1,4-dione]: the negative-log EC50 (pEC50) in series [1], in series [2] and in series [3] was more than 7.30 in each case.
With `CC1=C(Cc2ccc(C(F)(F)F)cn2)C(=O)c2c(F)cccc2C1=O` [Example 51, 5-fluoro-2-methyl-3-((5-(trifluoromethyl)pyridin-2-yl)methyl)naphthalene-1,4-dione], the pEC50 in series [1], in series [2] and in series [3] was more than 7.30 in each case.
With `CC1=C(Cc2ccc(C(F)(F)F)cn2)C(=O)c2c(F)ccc(F)c2C1=O` [Example 52, 5,8-difluoro-2-methyl-3-((5-(trifluoromethyl)pyridin-2-yl)methyl)naphthalene-1,4-dione], the pEC50 in series [1], in series [2] and in series [3] was more than 7.30 each time.
As to `CC1=C(Cc2ccc(C(=O)O)cn2)C(=O)c2ccccc2C1=O` [Example 99, 6-((3-methyl-1,4-dioxo-1,4-dihydronaphthalen-2-yl)methyl)nicotinic acid], the pEC50 in series [1] is less than 6.00. Further, the IC50 at 10 min on CYP3A4 is not below 50 µM.
In the case of `CC1=C(Cc2ccc(C(=O)NC3CCCC3)cn2)C(=O)c2ccccc2C1=O` [Example 100, N-cyclopentyl-6-((3-methyl-1,4-dioxo-1,4-dihydronaphthalen-2-yl)methyl)nicotinamide], in series [1], the pEC50 is 6.60 to 7.30. Besides, the IC50 at 10 min on CYP3A4 is not below 50 µM.
As to `CCCC1=C(Cc2cc(C)c(F)cn2)C(=O)c2ccccc2C1=O` [Example 113, 2-((5-fluoro-4-methylpyridin-2-yl)methyl)-3-propylnaphthalene-1,4-dione], the negative-log EC50 (pEC50) in series [1], in series [2] and in series [3] was more than 7.30 in each case.
As for `CCCC1=C(Cc2ccc(F)cn2)C(=O)c2ccccc2C1=O` [Example 116, 2-((5-fluoropyridin-2-yl)methyl)-3-propylnaphthalene-1,4-dione], the pEC50 in series [1], in series [2] and in series [3] was more than 7.30 each time.
On to `CCCC1=C(Cc2ccc(F)c(C)n2)C(=O)c2ccccc2C1=O` [Example 118, 2-((5-fluoro-6-methylpyridin-2-yl)methyl)-3-propylnaphthalene-1,4-dione], for which the pEC50 in series [1], in series [2] and in series [3] was more than 7.30 throughout.
For `Cc1cc(CC2=C(C3CC3)C(=O)c3ccccc3C2=O)ncc1F` [Example 120, 2-cyclopropyl-3-((5-fluoro-4-methylpyridin-2-yl)methyl)naphthalene-1,4-dione], the pEC50 in series [1], in series [2] and in series [3] was more than 7.30 throughout.
Consider `Cc1ccc(CC2=C(CCC3COC3)C(=O)c3ccccc3C2=O)nc1` [Example 122, 2-((5-methylpyridin-2-yl)methyl)-3-(2-(oxetan-3-yl)ethyl)naphthalene-1,4-dione], for which the results for the pEC50 in series [1], in series [2] and in series [3] were more than 7.30, more than 7.30 and 6.60 to 7.30, respectively.
